30 compounds from patent publication US8486945B2, “Heterocyclic inhibitors of an Hh-signal cascade, medicinal compositions based thereon and methods for treating diseases caused by the aberrant activity of an Hh-signal system” (priority 2007, dated 2013) can be followed below.

The experiment relates to Hh-signalling cascade. Description: Inhibition of SHh-induced alkaline phosphatase in C3H10T1/2 cells (Hh-signalling cascade inhibition). In kind it is cell-based. The note with it: Mus musculus, C3H 10T1/2, half maximal inhibition of SHh (0.3 μg/ml) stimulation of cell alkaline phosphatase. The text has this:
C3H10T1/2 Cells were used for identification of inhibitors of SHh-protein signaling cascade. SHh-protein activates C3H10T1/2 cells, that leads to their osteogenic differentiation [1) Kinto N., Iwamoto M., Enomoto-Iwamoto M., Noji S., Ohuchi H., Yoshioka H., Kataoka H., Wada Y., Yuhao G., Takahashi H. E., Yoshiki S., Yamaguchi A. Fibroblasts expressing Sonic hedgehog induce osteoblast differentiation and ectopic bone formation. FEBS Lett. 1997; 404(2-3): 319-23. 2) Spinella-Jaegle S., Rawadi G., Kawai S., Gallea S., Faucheu C., Mollat P., Courtois B., Bergaud B., Ramez V., Blanchet A. M., Adelmant G., Baron R., Roman-Roman S. Sonic hedgehog increases the commitment of pluripotent mesenchymal cells into the osteoblastic lineage and abolishes adipocytic differentiation. J. Cell Sci. 2001; 114(Pt 11): 2085-94] and, in particular, to expression enhancement of alkaline phosphatase enzyme.
The cells were cultivated in DMEM medium with 10% embryonal calfish serum in incubator at 37° C., 100% humidity and 5% CO2 content. The cells were placed in 384-well plates and left for night. On the next day the tested compounds in concentration of 10 μM were added to the cells, incubated for 30 min, then recombinant (R & D Systems, USA) SHh protein in concentration of 0.3 μg/ml was added and incubation was continued for 3 days. Cells with DMSO instead of a test compound and cells without SHh protein were used as test control. For determination of the cell alkaline phosphatase activity the cells were lysed in the buffer containing 0.2% Triton-X100, lisates were incubated together with proluminescent substrate CSPD (Applied Biosystems, USA) and the resultant luminescence was measured using reader VICTOR^2V (PerkinElmer, USA).
The ability of the compounds to inhibit Hh-signalling cascade was determined using C3H10T1/2 cells in 384-well plates as described in example 1. The compounds were added in triplicates in various concentrations, prepared by multiple dilution of starting solutions (concentration dependences of cell alkaline phosphatase inhibition induced by the addition of tested compounds are shown in FIG. 1). Activity of the compounds was characterized by their concentrations produced half maximal inhibition of stimulation of cell alkaline phosphatase SHh (IC50).

pIC50: −log10 of the molar value. Where only a bound is given, the exact number is not on record here.

The term pIC50 denotes the negative decadic logarithm of the IC50, by convention in mol/L. In turn, `Cc1nn(-c2ccccc2)c2c1N(CC(=O)NCc1ccccn1)C(=O)CS2` [II-1003, 2-(3-Methyl-5-oxo-1-phenyl-5,6-dihydro-1H-pyrazolo[3,4-b][1,4]thiazin-4-yl)-N-(pyridin-2-ylmethyl)acetamide] gave a negative-log IC50 (pIC50) of over 5.30.
`CCC(C(=O)N1CCOCC1)n1nc(C)c2c(C)n(-c3ccccc3)nc2c1=O` (stereo not drawn) [I-1015, 2-Phenyl-3,4-dimethyl-6-[1-(morpholin-4-ylcarbonyl)propyl]-2,6-dihydro-7H-pyrazolo[3,4-c]pyridazin-7-one]: the negative logarithm of the IC50 (pIC50) is over 5.30.
The compound `CS(=O)(=O)N1CCCc2cc(C(=O)Nc3ccc4c(c3)OCO4)ccc21` [VII-1005, 1-Methylsulfonyl-1,2,3,4-tetrahydroquinoline-6-carboxylic acid (benzo[1,3]dioxol-5-yl)amide] showed a pIC50 of over 6.30.
In turn, `CCS(=O)(=O)N1CCCc2cc(C(=O)Nc3ccccc3F)ccc21` [VII-1025, 1-Ethylsulfonyl-1,2,3,4-tetrahydroquinoline-6-carboxylic acid (2-fluorophenyl)amide] gave a negative-log IC50 (pIC50) of over 5.30.
Then `Cc1nn(-c2ccccc2)c2c1N(CC(=O)Nc1cccc(C(F)(F)F)c1)C(=O)CS2` [II-1002, 2-(3-Methyl-5-oxo-1-phenyl-5,6-dihydro-1H-pyrazolo[3,4-b][1,4]thiazin-4-yl)-N-(3-trifluoromethylphenyl)acetamide], with over 6.30.
`Cc1ccc(NC(=O)C2CCN(C(=O)c3cc4sccc4n3Cc3ccc(F)cc3)CC2)c(C)c1` [V-1034, 1-[4-(4-Fluorobenzyl)-4H-thieno[3,2-b]pyrrole-5-carbonyl]piperidine-4-carboxylic acid (2,4-dimethylphenyl)amide] showed a pIC50 of over 6.30.
`Cc1ccc(-n2nc3c(=O)n(CC(=O)NCc4ccc(C)o4)nc(C)c3c2C)cc1` [I-1016, 2-[2-(4-Methylphenyl)-3,4-dimethyl-7-oxo-2,7-dihydro-6H-pyrazolo[3,4-d]pyridazin-6-yl]-N-[(5-methylfuran-2-yl)methyl]acetamide] gave a negative logarithm of the IC50 (pIC50) of over 5.30.
Next, `COc1ccc(CCNC(=O)CN2C(=O)CSc3c2c(C)nn3-c2ccccc2)cc1OC` [II-1005, N-[2-(3,4-Dimethoxyphenyl)ethyl]-2-(3-methyl-5-oxo-1-phenyl-5,6-dihydro-1H-pyrazolo[3,4-b][1,4]thiazin-4-yl)acetamide]: over 4.30.
For `O=C(NCCCN1CCCC1)C1CCN(C(=O)c2cc3sccc3n2Cc2ccc(F)cc2)CC1` [V-1042, 1-[4-(4-Fluorobenzyl)-4H-thieno[3,2-b]pyrrole-5-carbonyl]piperidine-4-carboxylic acid (3-N-pyrrolidinopropyl)amide], the negative logarithm of the IC50 (pIC50) is over 6.30.
`CCC(C(=O)NC1CC1)n1nc(C)c2c(C)n(-c3ccc(C)cc3)nc2c1=O` (stereo not drawn) [I-1018, 2-[2-(4-Methylphenyl)-3,4-dimethyl-7-oxo-2,7-dihydro-6H-pyrazolo[3,4-c]pyridazin-6-yl]-N-(cyclopropyl)butanamide]: the pIC50 was over 5.30.
The compound `Cc1nn(-c2ccccc2)c2c1N(CCCC(=O)N1CCN(c3ccccc3)CC1)C(=O)CS2` [II-1023, 3-Methyl-4-[4-oxo-4-(4-phenylpiperazin-1-yl)butyl]-1-phenyl-1,4-dihydropyrazolo[3,4-b][1,4]thiazin-5-one] had a negative logarithm of the IC50 (pIC50) of over 6.30.
With `O=C(NCc1ccccn1)C1CCN(C(=O)c2cc3sccc3n2Cc2ccc(F)cc2F)CC1` [V-1030, 1-[4-(2,4-Difluorobenzyl)-4H-thieno[3,2-b]pyrrole-5-carbonyl]piperidine-4-carboxylic acid [(pyridin-2-yl)methyl]amide], the negative-log IC50 (pIC50) was over 5.30.
Then `COC(=O)c1ccc(C(=O)Nc2sc3c(c2-c2nc4ccccc4s2)CCN(C(C)C)C3)cc1` [VIII-1025], with over 4.30; and `CN1CCN(C(=O)C2CCN(C(=O)c3cc4sccc4n3Cc3cccc(F)c3)CC2)CC1` [V-1050, [4-(3-Fluorobenzyl)-4H-thieno[3,2-b]pyrrol-5-yl]-[4-(4-methylpiperazine-1-carbonyl)piperidin-1-yl]methanone], with over 6.30.
Then `O=C(NCc1ccc(F)cc1)C1CCN(C(=O)c2cc3sccc3n2Cc2ccc(F)cc2)CC1` [V-1037, 1-[4-(4-Fluorobenzyl)-4H-thieno[3,2-b]pyrrole-5-carbonyl]piperidine-4-carboxylic acid [(4-fluorophenyl)methyl]amide], with over 4.30; and `O=C(NCc1ccccn1)C1CCN(C(=O)c2cc3sccc3n2Cc2ccc(Cl)cc2)CC1` [V-1045, 1-[4-(4-Chlorobenzyl)-4H-thieno[3,2-b]pyrrole-5-carbonyl]piperidine-4-carboxylic acid [(pyridin-2-yl)methyl]amide], with over 5.30; and `Cc1nn(-c2ccccc2)c2c1N(CC(=O)N1CCCC1)C(=O)CS2` [II-1013, 3-Methyl-4-[2-oxo-2-(pyrrolidin-1-yl)ethyl]-1-phenyl-1,4-dihydropyrazolo[3,4-b][1,4]thiazin-5-one], with under 4.30.
Then `COCCNC(=O)C1CCN(C(=O)c2cc3sccc3n2Cc2ccc(F)cc2)CC1` [V-1036, 1-[4-(4-Fluorobenzyl)-4H-thieno[3,2-b]pyrrole-5-carbonyl]piperidine-4-carboxylic acid (2-methoxyethyl)amide], with over 6.30.
Compound `O=C(Nc1ccc(-c2cn3ccccc3n2)cc1)c1ccncc1` [III-1003, N-(4-(Imidazo[1,2-a]pyridin-2-yl)phenyl)isonicotinamide] had a pIC50 of over 6.30.
Then `Cc1nn(CCC(=O)NCc2cccnc2)c(=O)c2nn(-c3ccccc3)c(C)c12` [I-1019, 3-(2-Phenyl-3,4-dimethyl-7-oxo-2,7-dihydro-6H-pyrazolo[3,4-c]pyridazin-6-yl)-N-(pyridin-3-ylmethyl)propanamide], with over 5.30.
Then `CN1CCN(C(=O)C2CCN(C(=O)c3cc4sccc4n3Cc3ccc(N(C)C)cc3)CC2)CC1` [V-1054, [4-(4-Dimethylaminobenzyl)-4H-thieno[3,2-b]pyrrol-5-yl]-[4-(4-methylpiperazine-1-carbonyl)piperidin-1-yl]methanone], with over 6.30; and `Cc1cccc(N2CCN(C(=O)CN3C(=O)CSc4c3c(C)nn4-c3ccccc3)CC2C)c1` (stereo not drawn) [II-1001, 3-Methyl-4-[2-(3-methyl-4-m-tolylpiperazin-1-yl)-2-oxoethyl]-1-phenyl-1,4-dihydro-pyrazolo[3,4-b][1,4]thiazin-5-one], with over 6.30.
With `Cc1nn(C(C)C(=O)N2CCN(c3ccccc3F)CC2)c(=O)c2nn(-c3ccccc3)c(C)c12` (stereo not drawn) [I-1013, 2-Phenyl-3,4-dimethyl-6-{1-methyl-2-[4-(2-fluorophenyl)piperazin-1-yl]-2-oxoethyl}-2,6-dihydro-7H-pyrazolo[3,4-d]pyridazin-7-one], the negative-log IC50 (pIC50) was over 6.30.
Next, `CNC(=O)CN1C(=O)CSc2c1c(C)nn2-c1ccccc1` [II-1011, N-Methyl-2-(3-methyl-5-oxo-1-phenyl-5,6-dihydro-1H-pyrazolo[3,4-b][1,4]thiazin-4-yl)acetamide]: under 4.30.
Then `COc1ccc(CNC(=O)CN2C(=O)CSc3c2c(C)nn3-c2ccccc2)cc1` [II-1007, N-(4-Methoxybenzyl)-2-(3-methyl-5-oxo-1-phenyl-5,6-dihydro-1H-pyrazolo[3,4-b][1,4]thiazin-4-yl)acetamide], with over 4.30; and `CN1CCN(C(=O)C2CCN(C(=O)c3cc4sccc4n3Cc3ccc(F)cc3)CC2)CC1` [V-1048, [4-(4-Fluorobenzyl)-4H-thieno[3,2-b]pyrrol-5-yl]-[4-(4-methylpiperazine-1-carbonyl)piperidin-1-yl]methanone], with over 6.30; and `Cc1ccc(-n2nc3c(=O)n(CC(=O)Nc4ccccc4F)nc(C)c3c2C)c(C)c1` [I-1014, 2-[2-(2,4-dimethylphenyl)-3,4-dimethyl-7-oxo-2,7-dihydro-6H-pyrazolo[3,4-c]pyridazin-6-yl]-N-(2-fluorophenyl)acetamide], with over 5.30.
Next, `Cc1nn(CCCC(=O)N2CCOCC2)c(=O)c2nn(-c3ccccc3)c(C)c12` [I-1025, 2-Phenyl-3,4-dimethyl-6-[4-(morpholin-4-yl)-4-oxobutyl]-2,6-dihydro-2H-pyrazolo[3,4-c]pyridazin-7-one]: over 4.30; `Cc1ccc(-n2nc3c(=O)n(CCCC(=O)NCCc4ccco4)nc(C)c3c2C)cc1` [I-1023, 4-[2-(4-Methylphenyl)-3,4-dimethyl-oxo-2,7-dihydro-6H-pyrazolo[3,4-d]pyridazin-6-yl]-N-[2-(furan-2-yl)ethyl]butanamide]: over 4.30; `Cc1ccc(-n2nc3c(=O)n(C(C)C(=O)NCCc4cccs4)nc(C)c3c2C)cc1` (stereo not drawn) [I-1017, 2-[2-(4-Methylphenyl)-3,4-dimethyl-7-oxo-2,7-dihydro-6H-pyrazolo[3,4-d]pyridazin-6-yl)-N-[2-(thien-2-yl)ethyl]propanamide]: over 5.30.
